Test results taken from patent US20240091220A1, “METHODS OF MODULATING NEURONAL AND OLIGODENDROCYTE SURVIVAL” (priority 2021, published 2024).
Entries after “also recorded” stand apart in the source; their conditions may differ.

Legend:
[1] = test system: oligodendrocytes; experiment: Oligodendrocyte live/dead survival with ethoxyquin, with or without reactive ACM; type: cell-based, rat; conditions: for Slope of simple linear regression of oligodendrocyte survival on ethoxyquin dose: increasing doses of ethoxyquin in DMSO
Protocol: For collection of astrocyte conditioned media, plates of astrocyte cultures from identical preps were randomly chosen as control or reactive. Reactive astrocyte cultures were treated for 24 hours with IL1α (3 ng/ml, Sigma, 13901), TNF (30 ng/ml, Cell Signaling Technology, 8902SF), and C1q (400 ng/ml, MyBioSource, MBS143105). Control and reactive astrocyte conditioned media (ACM) was collected and spun at ˜2000 g for 5 minutes to remove any dead cells or cell debris. ACM was then concentrated in a Vivaspin 30 kDa centrifugation tubes (Cytiva 28932361) to ˜10× concentration for subsequent experiments. The protein concentration of ACM was determined by Bradford Assay (Sigma-B6916) and used to ensure identical concentrations of reactive versus control ACM were used for further experiments. ACM was presented at a dose of 50 μg/ml in all experiments not otherwise denoted with an alternative concentration.
Z1 (Zeiss) or on an Incucyte ZOOM (Essen Bioscience).

[2] = test system: reactive ACM-mediated toxicity; conditions: previous data, Liddelow et al. 2017; cited from earlier work
[3] = test system: oligodendrocytes; conditions: dose curve, live/dead analysis 24 hours after treatment
Protocol: Oligodendrocytes: Oligodendrocyte lineage cells were purified by immunopanning from P6 Sprague-Dawley forebrains and cultured as previously described (Dugas and Emery, “Purification of Oligodendrocyte Precursor Cells from Rat Cortices by Immunopanning,” Cold Spring Harbor Protocols 2013(8):745-758 (2013), which is hereby incorporated by reference in its entirety). Cortices were blunt dissected and enzymatically digested using papain at 37° C. and 10% CO2. Tissue was then mechanically triturated with a 5 mL serological pipette at room temperature to generate a single-cell suspension. […]
All experiments began with identically plated cells that were randomly chosen for treatment, ensuring identical starting cell numbers for control and experimental conditions. […] Identical acquisition and illumination conditions were used within each experiment and cells were counted in ImageJ using custom macros, which involved background subtraction and thresholding following by particle counting. […]

CCOc1ccc2c(c1)C(C)=CC(C)(C)N2 [ethoxyquin]
Slope of simple linear regression of oligodendrocyte survival on ethoxyquin dose ([1]; with 30 μg/ml reactive ACM): −0.000001788
Slope of simple linear regression of oligodendrocyte survival on ethoxyquin dose ([1]; without reactive ACM): −0.0000025
Effect on toxicity of reactive ACM to oligodendrocytes ([1]; with reactive ACM): had no effect; also recorded: did not impact the toxicity of reactive ACM
Effect on oligodendrocyte survival when treated in isolation ([1]; without reactive ACM): did not impact cell survival

CCOC(=O)c1ccc(NC2CCCCC2)c(N)c1 [Ferrostatin-1]
Effect on reactive ACM-mediated (astrocyte) toxicity [2]: does not affect; also recorded: has no effect

CCCCCCCCCCCCCCCCCCCC(=O)OC[C@H](COP(=O)([O-])OCC[N+](C)(C)C)OC(=O)CCCCCCCCCCCCCCCCCCC [phosphatidylcholines (20:0)]
Toxicity to oligodendrocytes (survival) [3]: toxic to oligodendrocytes in a dose-dependent fashion
